The values below come from the Biogen ADME set (Fang et al. 2023).

The conditions of the data set: for aqueous solubility: pH 6.8.

In brackets after ≈: the same amount, converted by molar mass.

As usually defined, the aqueous solubility is how much of the substance goes into solution per volume. A lower aqueous solubility goes with little dissolved substance. On to `CC(C)(O)[C@H]1O[C@H]2CC[C@@]3(C)[C@@](O)(CC[C@H]4Cc5c([nH]c6ccccc56)[C@@]43C)C2=CC1=O`, for which the aqueous solubility turned out to be 0.99 µg/mL (≈ 2.27 µM).
Take `CCc1ccccc1-c1cn(CCc2cnccn2)nn1`: the MDR1-MDCK efflux ratio amounted to 0.783; the intrinsic clearance, human liver microsomes came to 24.7 mL/min/kg; the intrinsic clearance, rat liver microsomes came to 290 mL/min/kg; the aqueous solubility stood at 27.6 µg/mL (≈ 99 µM).
Turning to `O=C1NC2(CCCCC2)C(=O)N1Cc1csc(-c2ccccc2)n1`, the MDR1-MDCK efflux ratio was determined as 1.15; the intrinsic clearance, human liver microsomes came out at 23.7 mL/min/kg; the intrinsic clearance, rat liver microsomes is 862 mL/min/kg.
On to `COc1ccc(Nc2nc3ccccc3c3nncn23)cc1`, for which the aqueous solubility turned out to be 0.14 µg/mL (≈ 0.481 µM).
`CC(C)Nc1ccc(-c2cc3c(cc2CO)OCCO3)cn1`: the MDR1-MDCK efflux ratio turned out to be 0.775; the intrinsic clearance, human liver microsomes turned out to be 13.7 mL/min/kg; the intrinsic clearance, rat liver microsomes was determined as 5720 mL/min/kg.
Consider `COc1ccc(OC)c(S(=O)(=O)Nc2cccc(CCc3ccccn3)c2)c1`, for which the MDR1-MDCK efflux ratio is 4.21; the intrinsic clearance, human liver microsomes was determined as 582 mL/min/kg; the intrinsic clearance, rat liver microsomes amounted to 3140 mL/min/kg; the aqueous solubility worked out at 39.8 µg/mL (≈ 99.8 µM).
Consider `COCCOc1cnc2ccn([C@H](C)c3nnc4c(F)cc(-c5cnn(C)c5)cn34)c(=O)c2c1`, for which the MDR1-MDCK efflux ratio was found to be 126; the intrinsic clearance, human liver microsomes worked out at 6.14 mL/min/kg; the intrinsic clearance, rat liver microsomes turned out to be 25.1 mL/min/kg.
As for `C[C@@H](CN1CCC(n2c(=O)[nH]c3cc(Cl)ccc32)CC1)NC(=O)c1ccc2ccccc2c1`, the intrinsic clearance, human liver microsomes amounted to 104 mL/min/kg; the intrinsic clearance, rat liver microsomes worked out at 668 mL/min/kg; the aqueous solubility is 3.85 µg/mL (≈ 8.32 µM).
As to `CCN(Cc1ccccc1)C(=O)c1ccc(O)cc1O`, the MDR1-MDCK efflux ratio was 0.83; the intrinsic clearance, human liver microsomes is no more than 4.74 mL/min/kg; the intrinsic clearance, rat liver microsomes was found to be 726 mL/min/kg; the aqueous solubility was 46.7 µg/mL (≈ 172 µM).
`Cc1ccc(F)c(-c2noc(N)c2C)c1`: the MDR1-MDCK efflux ratio was 0.523; the intrinsic clearance, human liver microsomes came out at 19.6 mL/min/kg; the intrinsic clearance, rat liver microsomes stood at 293 mL/min/kg.
For the compound `COc1cc(OC)cc(C(=O)Nc2nc3c(s2)COc2ccccc2-3)c1`, the aqueous solubility came out at 0.39 µg/mL (≈ 1.06 µM).
With `CC(=O)N1CCN([C@H]2CCN(C(=O)c3cc4cc(Cl)ccc4o3)CC[C@@H]2O)CC1`, the MDR1-MDCK efflux ratio came to 37.8; the intrinsic clearance, human liver microsomes is 8.04 mL/min/kg; the intrinsic clearance, rat liver microsomes was found to be 96.9 mL/min/kg.
Turning to `Cc1cnn(CCNC(=O)C2(Cn3cccn3)CC2)c1`, the MDR1-MDCK efflux ratio was found to be 6.11; the intrinsic clearance, human liver microsomes was 10.2 mL/min/kg; the intrinsic clearance, rat liver microsomes was found to be 108 mL/min/kg.
`Fc1ccc(-c2ccc3c(c2)[nH]c2ccncc23)cn1`: the MDR1-MDCK efflux ratio came to 0.469; the fraction unbound, human plasma was found to be 0.045; the fraction unbound, rat plasma is 0.0437; the intrinsic clearance, human liver microsomes is 16.8 mL/min/kg. The intrinsic clearance, rat liver microsomes is 162 mL/min/kg.
For `CCNc1nc(-c2cccnc2)nc(C)c1C`, the MDR1-MDCK efflux ratio is 0.577; the intrinsic clearance, human liver microsomes came out at 49.7 mL/min/kg; the intrinsic clearance, rat liver microsomes amounted to 69.8 mL/min/kg.
In turn, `O=C(c1cccs1)N1CCCC(C(=O)N2Cc3ccccc3C(c3ccccc3)C2)C1` (configuration not stated) gave an intrinsic clearance, human liver microsomes of 767 mL/min/kg; an intrinsic clearance, rat liver microsomes of 4910 mL/min/kg; an aqueous solubility of 24.7 µg/mL (≈ 57.4 µM).
In the case of `CC1=NC(Nc2nc(C)c3ccccc3n2)=NC(C)(C)C1`, the aqueous solubility came to 0.66 µg/mL (≈ 2.35 µM).
`COc1ccc(-c2ccc(CNc3ccc(CN4CCC(C)CC4)cc3)cc2)cc1`: the intrinsic clearance, human liver microsomes turned out to be 124 mL/min/kg; the intrinsic clearance, rat liver microsomes amounted to 32.9 mL/min/kg; the aqueous solubility worked out at 14.7 µg/mL (≈ 36.7 µM).
Turning to `CN(C)CC(=O)N1CCC(c2ccc(NC(=O)c3nc(C#N)c[nH]3)c(C3=CCCCC3)c2)CC1`, the MDR1-MDCK efflux ratio stood at 42.6; the intrinsic clearance, human liver microsomes is 12.4 mL/min/kg; the intrinsic clearance, rat liver microsomes was found to be 56.3 mL/min/kg.
The like results for `CC1=CCN(C(=O)c2cc(C)nc3cc(C)cc(C)c23)CC1` were, in that order, 1.03, 97.7 mL/min/kg and 2140 mL/min/kg.
Turning to `Cn1cc(-c2cccc3c(C(N)=O)cccc23)cn1`, the MDR1-MDCK efflux ratio was found to be 1.17; the intrinsic clearance, human liver microsomes was no more than 4.74 mL/min/kg; the intrinsic clearance, rat liver microsomes was determined as 42.6 mL/min/kg.
Consider `CN1CCN(C(=O)c2cc(Br)cnc2Cl)c2cnccc21`, for which the MDR1-MDCK efflux ratio was determined as 4.54; the intrinsic clearance, human liver microsomes was determined as 9.09 mL/min/kg; the intrinsic clearance, rat liver microsomes stood at 90.8 mL/min/kg; the aqueous solubility came to 57.8 µg/mL (≈ 157 µM).
Turning to `Cc1cnc(CNC2(c3nccs3)CCCC2)cn1`, the intrinsic clearance, human liver microsomes is no more than 4.74 mL/min/kg and the intrinsic clearance, rat liver microsomes was 245 mL/min/kg.
With `COc1ccc(-n2c(Cn3cnc(C#N)n3)nc3ccccc32)cc1`, the MDR1-MDCK efflux ratio worked out at 1.37; the intrinsic clearance, human liver microsomes was 5 mL/min/kg; the intrinsic clearance, rat liver microsomes was found to be 664 mL/min/kg; the aqueous solubility was determined as 36 µg/mL (≈ 109 µM).
Turning to `CN1CCC(n2ncc3[nH]c(-c4ccc5ccccc5c4)nc32)CC1`, the MDR1-MDCK efflux ratio was 13.9; the intrinsic clearance, human liver microsomes was 23.4 mL/min/kg; the intrinsic clearance, rat liver microsomes came out at 928 mL/min/kg; the aqueous solubility was 42.1 µg/mL (≈ 127 µM).
Take `CC(=O)N1CCN(C(=O)CS(=O)(=O)C23CC4CC(CC(C4)C2)C3)CC1`: the MDR1-MDCK efflux ratio is 10.3; the intrinsic clearance, human liver microsomes is no more than 4.74 mL/min/kg; the intrinsic clearance, rat liver microsomes worked out at 298 mL/min/kg.
In turn, `Cc1ccc(S(=O)(=O)Nc2ccc3c(c2)CCCN3C(=O)c2cccs2)cc1C` showed an intrinsic clearance, human liver microsomes of 364 mL/min/kg and an intrinsic clearance, rat liver microsomes of 2380 mL/min/kg.
For the compound `CSc1ccccc1NC(=O)CN1CCCC(c2nc3ccccc3o2)C1` (configuration not stated), the intrinsic clearance, human liver microsomes amounted to 1120 mL/min/kg; the intrinsic clearance, rat liver microsomes was determined as 4670 mL/min/kg; the aqueous solubility was determined as 8.5 µg/mL (≈ 22.3 µM).
Turning to `O=C(CN1CCC(c2ccccc2)CC1)N1CCNC1=O`, the MDR1-MDCK efflux ratio was 1.06; the intrinsic clearance, human liver microsomes was no more than 4.74 mL/min/kg; the intrinsic clearance, rat liver microsomes came out at 65.2 mL/min/kg; the aqueous solubility came to 49.1 µg/mL (≈ 171 µM).
As to `CC(C)(C)C(=O)N1CCC(Cc2ccc(-c3cccs3)cc2)(C(=O)N2CCCC2)CC1`, the MDR1-MDCK efflux ratio amounted to 0.998; the fraction unbound, human plasma turned out to be 0.00655; the fraction unbound, rat plasma stood at 0.0102; the intrinsic clearance, human liver microsomes is 223 mL/min/kg. Also, the intrinsic clearance, rat liver microsomes worked out at 1440 mL/min/kg and the aqueous solubility was 23 µg/mL (≈ 52.4 µM).
Take `Cc1ccc(C)c2nc3c(cc12)CNCCO3`: the MDR1-MDCK efflux ratio was found to be 0.525; the intrinsic clearance, human liver microsomes came to 23.7 mL/min/kg; the intrinsic clearance, rat liver microsomes turned out to be 234 mL/min/kg.
For the compound `Cn1nc(-c2cc(F)cc(F)c2)cc1N`, the MDR1-MDCK efflux ratio was determined as 0.607; the intrinsic clearance, human liver microsomes is 43.8 mL/min/kg; the intrinsic clearance, rat liver microsomes was found to be 48.7 mL/min/kg.
Taken in the same sequence, the figures for `O=C(c1cn(Cc2cncn2Cc2ccc(Br)cc2)cc1-c1cccc2ccccc12)N1CCOCC1` were 22.8, 150 mL/min/kg and 2010 mL/min/kg.
In the case of `Cc1ncc(CN2CCC(Nc3ccc4nnnn4n3)C(C)C2)s1` (configuration not stated), the MDR1-MDCK efflux ratio turned out to be 27.5; the fraction unbound, human plasma came to 0.449; the fraction unbound, rat plasma was 0.379; the intrinsic clearance, human liver microsomes was found to be 16.2 mL/min/kg. The compound also displayed an intrinsic clearance, rat liver microsomes of 122 mL/min/kg.
In the case of `CC(C)(C)Sc1c(CC(C)(C)C(=O)O)n(Cc2ccc(Cl)cc2)c2ccc(OCc3ccc4ccccc4n3)cc12`, the MDR1-MDCK efflux ratio is 2.37; the intrinsic clearance, human liver microsomes worked out at 28.7 mL/min/kg; the intrinsic clearance, rat liver microsomes came out at 142 mL/min/kg; the aqueous solubility worked out at 6.1 µg/mL (≈ 10.4 µM).
The like results for `O=C(NCc1ncc(-c2ccccc2)o1)C1CCCCC1` were, in that order, 0.57, 41.9 mL/min/kg, 668 mL/min/kg and 75.9 µg/mL (≈ 267 µM).
The like results for `CC(C)C(=O)Nc1ccc2cnn(C(C)C)c2c1` were, in that order, 1.42, 14 mL/min/kg, 55.8 mL/min/kg and 23 µg/mL (≈ 93.7 µM).
Taken in the same sequence, the figures for `COc1ccc(C(=O)Cn2c(=O)n(-c3ccccc3F)c3nc(C)nc(C(N)=O)c32)cc1` were 1.46, no more than 4.74 mL/min/kg, 76 mL/min/kg and 3.69 µg/mL (≈ 8.47 µM).
On to `Cc1ccc(-c2ccc(-c3nccn3CCCn3cnnc3)o2)cc1`, for which the MDR1-MDCK efflux ratio was 123; the intrinsic clearance, human liver microsomes amounted to 15.7 mL/min/kg; the intrinsic clearance, rat liver microsomes was 541 mL/min/kg; the aqueous solubility came to 36.8 µg/mL (≈ 110 µM).
For `CCCNC(=O)C1(NCc2csnn2)CCCCC1`, the MDR1-MDCK efflux ratio amounted to 2.87; the intrinsic clearance, human liver microsomes is 7.42 mL/min/kg; the intrinsic clearance, rat liver microsomes was determined as 152 mL/min/kg.
In the case of `O=C(Nc1nc2ccccc2[nH]1)c1cc(-c2ccccc2)nc2ccccc12`, the aqueous solubility came to 0.45 µg/mL (≈ 1.23 µM).
Consider `C#Cc1cccc(N(CC(=O)NC(N)=O)Cc2cccs2)c1`, for which the MDR1-MDCK efflux ratio was 2.25; the intrinsic clearance, human liver microsomes was 38.5 mL/min/kg; the intrinsic clearance, rat liver microsomes came out at 1610 mL/min/kg.
Taken in the same sequence, the figures for `COc1cccc(O[C@H]2CCN(C(=O)c3cc(-c4ccc(C)cc4)on3)CC[C@@H]2O)c1` were 0.721, 82.3 mL/min/kg and 1060 mL/min/kg.
The like results for `CS(=O)(=O)NCc1cc2n(n1)CCN(C1Cc3ccccc3C1)C2` were, in that order, 2.92, no more than 4.74 mL/min/kg and 27.7 mL/min/kg.
Taken in the same sequence, the figures for `CC(C)(O)CCn1cc2cc(NC(=O)c3ccn(C(F)F)n3)c(OCC3COC3)cc2n1` were 11.8, no more than 4.74 mL/min/kg and 13.3 mL/min/kg.
Turning to `N#CCC1(n2cc(-c3ncnc4[nH]ccc34)cn2)CNC1`, the aqueous solubility came out at 32.6 µg/mL (≈ 117 µM).
Consider `CC(C)(C)NC(=O)c1cnc(-c2ccc(Cl)s2)s1`, for which the MDR1-MDCK efflux ratio amounted to 0.494; the intrinsic clearance, human liver microsomes was 41.6 mL/min/kg; the intrinsic clearance, rat liver microsomes was found to be 167 mL/min/kg; the aqueous solubility was 1.1 µg/mL (≈ 3.66 µM).
